Assays:
[1] = Solubility of the isolated DHA powder (physical characterisation); assay type: physicochemical; settings: solvent chloroform; isolated DHA free fatty acid powder
Description: Take 1 liter of fish oil. Maintain temperature to 40-45° C. To it add 1-2% methanolic/ethanolic/propanolic/butanolic sodium or potassium hydroxide 1 liter. Stir for ½ an hour. It separates two layers, discard upper layer which contains lower fatty acids and other impurities. Then, to the lower layer add 750 ml of acetone or ethyl or methyl ketone and stir for one hr and keep aside for ½ hour to precipitate DHA. Filter it and wash 2-3 times with equal quantity of acetone. Evaporate and recover the solvent with temperature not exceeding 40 degree C. This leads to drying of the precipitated DHA at room temperature to form the crystalline mass. The same is passed through the sieve to obtain a dry, directly compressible, free flowing powder of polyunsaturated free fatty acid DHA thereof. The DHA is creamish or off-white crystalline solid powder having melting point 60-62 degree C.
Cool fish oil 12 degree C. to solidify all fatty acids in waxy form and separate it from fish oil. Maintain temperature to 40-45° C. In 1 kg waxy fatty acid, add 1 litre ethanolic or methanolic or propanolic or butanolic sodium or potassium hydroxide 1-2% and stir it for ½ an hour. The solution separates the oily layer which contains lower fatty acids and other impurities then, add ethyl acetate:acetone 90:10 to 10:90 to above solvent. It precipitates DHA in solid form. […]

[2] = Stability of DHA powder at room temperature; assay type: physicochemical; settings: powder form, no antioxidants added

For `CC/C=C\C/C=C\C/C=C\C/C=C\C/C=C\C/C=C\CCC(=O)O` [DHA, Docosahexaenoic acid], the Solubility [1] was “freely soluble in chloroform” and the Stability [2] was “stable at room temperature”.

— US20140018558A1, “DOCOSAHEXAENOIC ACID (DHA) AS POLYUNSATURATED FREE FATTY ACID IN ITS DIRECTLY COMPRESSIBLE POWDER FORM AND METHOD OF ISOLATION THEREOF” (priority 2011, published 2014)
